Source: patent US9447014B2, “Tromethamine salt of bimatoprost acid in crystalline form, methods for preparation, and methods for use thereof” (ALLERGAN, INC., priority 2012, dated 2016)
Counter-ions that a name gives are not always drawn. Like-named read-outs stand apart in the source and are kept apart here.

Tests used:
Assay type in all cases: physicochemical
[1] = dissolution rate compared with the free acid
[2] = gravimetric vapor sorption (GVS) analysis
Source text: At relative humidity above 80% RH, tromethamine salt of bimatoprost acid behaves hygroscopic with a a significant moisture uptake observed. The significant uptake of moisture may be a result of the large specific surface area of the material. On desorption, the adsorbed water was rapidly lost with no equilibrium established. At the end of the gravimetric vapor sorption (GVS) cycle, at 40% RH, the overall sample mass increased by 5 wt %.

[3] = physical stability on storage
[4] = solubility of the tromethamine salt

GVS analysis: deliquescence ([2]; 90% RH): no deliquescence | GVS analysis: hydrate formation ([2]; 90% RH): no hydrate | overall sample mass increase at the end of the GVS cycle ([2]; end of GVS cycle, at 40% RH): 5 wt % | XRPD re-analysis post GVS analysis (change in crystalline form) ([2]; post GVS analysis): no change in the crystalline Form 1 | hygroscopic behaviour (moisture uptake) ([2]; relative humidity above 80% RH): hygroscopic | physical stability ([3]; 25° C./60% RH in open container closure): > 3 months | physical stability ([3]; 40° C./75% RH in closed container closure): > 3 months | solubility ([4]; aqueous buffer, at pH 6.5, read-out: solubility): > 250 mg/mL | solubility ([4]; in formulation vehicles, no surfactant needed): ~25 w/v %
SMILES: O=C(O)CCC/C=C/CC1C(O)CC(O)C1/C=C/C(O)CCc1ccccc1 (stereo not shown) [tromethamine salt of bimatoprost acid, tromethamine salt of 7-[3,5-Dihydroxy-2-(3-hydroxy-5-phenyl-pent-1-enyl)-cyclopentyl]-hept-5-enoic acid]
dissolution rate [1]: faster dissolution rate than the free acid
